US12138266B2, “Folate preparations” (APROFOL AG, priority 2018, dated 2024)

How the values were obtained:
[1] = test system: primary keratinocytes of human skin; conditions: keratinocyte monolayer, MTT, 24 h; concentration based on the undiluted solution (2.5%) or the cream (=100%)
Experimental: In a preliminary experiment, the usable dose was determined.
For this test, the keratinocytes were seeded on 96-well plates and incubated with five dilutions of the solutions or the cream for 24 h. Subsequently, a vital dye was added and finally, the colour change caused by the conversion of the vital dye in living cells was photometrically quantified.
FIG. 1 and FIG. 2 show the determination of the usable dosage of the test substances. Cytotoxicity test with keratinocytes in monolayer culture after conversion of the vital dye MTT by living cells. The concentration data are based on the undiluted solutions or the cream (=100%). Treatment time=24 h. Untreated cultures served as negative controls. SDS served as a positive control (“dead control”). N=6+SEM
IC70 values were calculated by nonlinear regression (Hill Slope, GraphPad Prism 5.04). The term IC70 denotes the concentration at which the viability of the treated cell culture is reduced to 70% of the untreated control. IC70 is often referred to as the border between toxicity and non-toxic effect.

[2] = test system: primary keratinocytes of human skin; experiment: Scratch Assay (in vitro wound healing model); type: cell-based; conditions: for free wound surface in photographs: 0.1%
Source text: To examine the effect of different folate preparations on wound healing the in vitro model Scratch Assay was employed. This in vitro model comprises the defined injuring of a closed cell layer and the subsequent regrowth of the cells to a closed layer in the presence of the test-substance compared to appropriate controls, i.e. (untreated) cells with no test-substance present.
The experimental procedure for the Scratch Assay was as follows: The employed cells are primary keratinocytes of human skin (C-12005, Promocell, Heidelberg, Germany). […] Three different dosages were then used for the Scratch Assay. Further, cells were cultivated in growth-limiting medium in order to show a possible growth promoting effect of the test substances. For the medium used (C-20011, Promocell, Heidelberg, Germany) a growth limitation could be achieved by either the omission or dilution of epidermal growth factor (EGF) or of a complex mixture of undefined factors derived from […] BPE). Usually, growth-limiting medium was achieved by the omission of EGF. For the actual Scratch Assay keratinocytes were cultivated in appropriate cell culture plates (6-well plates, 657160, Greiner BioOne, Frickenhausen, Germany) bearing position markings. Cells were grown to a closed monolayer. Then, cells were scratched with pipette tip along the position markings, thereby generating a cell free area (scratch, injury). Cell monolayers were washed to remove partially detached cells and then covered with medium comprising the test-substances in appropriate dosages. Regrowth of the cells into the cell free area was observed over time at 0 h, 6 h and 24 h and photographically documented at these times. Analysis was done by marking and calculating the cell-free area (software ImageJ) and comparing the calculated areas at the different time point. […]
FIGS. 4 and 5 show the cell-free area of the induced scratch after 6 h or 24 h. The measured values were expressed as a percentage of the starting area of the respective treatment group. […]

[3] = test system: reconstructed skin models (epiCS); experiment: Bioavailability: transport through reconstructed skin models into basal compartment (LC/MS); type: in vitro ADME, human
Source text: In order to test the bioavailability in tissues such as skin, reconstructed skin models (epiCS, CS-1001, CellSystems, Troisdorf) were used which are generated from primary human keratinocytes. These models show a barrier very similar to human skin. They are regularly used as test models for the approval-relevant determination of corrosive or irritating effects of cosmetic raw materials. The skin models can usually be treated with finished products, as they are intended for use by the consumer. Nevertheless, before the skin models are treated with the test products, an assessment of the tolerability of the models is made to avoid overdosing.
The skin models were cultured on a porous membrane as mentioned above. The skin cells growing on it separate an apical compartment (with the skin model) from a basal compartment (with the nutrient medium). Mass transport from the apical to the basal compartment is thus almost exclusively possible through the cells. The only alternative to this is paracellular diffusion, which however, due to the functional tight junctions, is only possible for a few molecules and to a very limited extent. To determine the bioavailability of the products, the barrier is checked for leaks before use by means of resistance measurements. […] Suitable skin models are then treated topically with the test products. After 4 h, 8 h and 24 h, samples of the medium were taken in the basal part of the models to check for the presence and concentration of folates. Each test product and controls are tested at a concentration of three replicates each. The studies were repeated to obtain results from two independent runs. The determination of the folate contents of the media samples was started with the analysis of the 24 h values.
The analysis of the media samples was carried out by way of a LC/MS method established at a commercial service provider. The sensitivity of the method is in the range of 1 nmol/L. Before the start of the investigations, an estimate of the feasibility or a preliminary test was carried out in order to be able to assess the suitability of the method.
In addition, the topically applied amount was reduced to 50 μL each. In addition, in the main experiment, the lower compartment was not filled with medium (contains folic acid) but with 1 mL Hank balanced salt solution (without folic acid). Following a total of 24 hours incubation with the test substances, the skin models were again incubated with Resazurin to. […] In the main trial, two independent passes were completed.
In the lower compartment, 1 mL each of HBSS was initially charged. The results shown in the figures mentioned above were determined from 100 μL aliquots of this buffer amount.
In the apical compartment, 3 μmol of folate (solutions) or 0.3 μmol of folate are supplemented (in 50 μL).

human skin = experiment: Skin penetration determined by Raman spectroscopy on forearm of a subject; type: in vivo; conditions: for Calcium levoleucovorin penetrated into the skin per area: surface to depth of 30 μm
Experimental: In a further experiment it was examined if calcium levoleucovorin is able to penetrate skin. Penetration depth was determined by way of Raman spectroscopy. The measurement device was an inverse Raman microscope model 3510 with 60× oil immersion lens and evaluation software SkinTools of the company RiverD Rotterdam and the method were 10 profiles per application, measuring time of 5 seconds per measuring point, 7 steps of 2 μm, 4 steps of 4 μm, spectral range of 400-1800 cm^−1, at a laser excitation wavelength of 785 nm. Signals were generated with the software SkinTools that contains various skin and device specific spectra. The user can add their own spectra to the library. The evaluation is carried out via the CLS procedure (least squares method). The signals are output as a fit coefficient normalized to the fit coefficient of keratin.
For a quantitative indication of the result, a calibration must be carried out with standard series (see Tab. 1 and Tab. 2). First, the sensitivity of bovine serum albumin (BSA) is determined and the mass concentration BSA in g/ml is plotted against the BSA fit coefficient. A linear regression with fixed zero gives slope S. For the active substance, the molar concentration in mmol/ml is plotted against the drug coefficient multiplied by the BSA fit coefficient. This gives the slopes SA of the active ingredient. With the slopes, a so-called quantification factor of the drug can be created (SA/S=C). Multiplied by the factor C, the coefficient of fit of the active substance becomes the quantified value with the unit mmol/g of keratin.
The application of the drug or placebo (sodium gluconate) to the skin of a subject was done as follows: 20 μL was pipetted into an allergy patch and this was then stuck onto the forearm of a subject for a period of 30, 60, 120 and 240 minutes. At the end of the application time, the allergy patch was removed. Prior to determining the Raman profiles, the treated skin area was rubbed with a dry paper towel.

## 5-methyl-(6S)-tetrahydrofolic acid di choline salt [L-MTHF di choline]
[1]
  IC70 (concentration at which viability is reduced to 70% of the untreated control; usable dose): 0.14%
[2]; after 6 h
  free wound surface in photographs: hardly any surface is overgrown
[2]; after 24 h
  free wound surface in photographs: it becomes difficult to mark a cell-free area
[3]; after 4 h, compared with models supplemented with L-FTHF or folate cream
  methylfolate concentration in basal compartment (comparison): significantly higher concentrations
[3]; after 8 h
  formylfolate concentration in recipient compartment (basal): cannot be detected
  methylfolate concentration in basal compartment (comparison): highest concentrations
[3]; after 24 h
  formylfolate in basal compartment samples: cannot be detected
  methylfolate concentration in basal compartment (comparison): significantly higher than the highest standard
[3]; after 24 h, peak outside calibration line, absolute value uncertain
  methylfolate concentration in basal compartment, maximum: 120 µmol/L

## 5-formyl-(6S)-tetrahydrofolic acid calcium salt [L-FTHF Ca]
[1]
  IC70 (concentration at which viability is reduced to 70% of the untreated control; usable dose): 0.13%
[3]; after 24 h
  folic acid concentration (comparison with other skin models): twice as high
  methylfolate concentration in basal compartment (comparison): relatively high
[3]; after 24 h, outside calibration line, absolute values uncertain
  formylfolate concentration in basal compartment: 150 µmol/L
[3]; after 24 h supplementation
  folic acid (folate) concentration in basal compartment: about 200 nmol/L
Human skin; 30 to 240 minutes application time
  concentration profile in skin over application time: tendency to increased calcium levoleucovorin concentration both in the top 5 μm and deeper layers of the skin
Human skin; application period 30 min
  Amount recovered: 3.76 +/− 2.82 % of amount applied
  Calcium levoleucovorin penetrated into the skin per area: 0.37 +/− 0.27 μmol/cm^2
Human skin; application period 60 min
  Amount recovered: 3.28 +/− 2.58 % of amount applied
  Calcium levoleucovorin penetrated into the skin per area: 0.32 +/− 0.25 μmol/cm^2
Human skin; application period 120 min
  Amount recovered: 6.3 +/− 8.22 % of amount applied
  Calcium levoleucovorin penetrated into the skin per area: 0.62 +/− 0.8 μmol/cm^2
Human skin; application period 240 min, listed as Calcium levoleucovorin, calcium salt
  Amount recovered: 9.96 +/− 3.26 % of amount applied
Human skin; application period 240 min, listed as calcium levoleucovorin, calcium salt
  Amount recovered: 10 % of amount applied
Human skin; application period 240 min
  Calcium levoleucovorin penetrated into the skin per area: 0.97 +/− 0.32 μmol/cm^2

## N=C(N)NCCC[C@H](N)C(=O)O.N=C(N)NCCC[C@H](N)C(=O)O.Nc1nc2c(c(=O)[nH]1)N(C=O)[C@@H](CNc1ccc(C(=O)N[C@@H](CCC(=O)O)C(=O)O)cc1)CN2 [L-FTHF di arginine, 5-formyl-(6S)-tetrahydrofolic acid di L-arginine salt]
[1]
  IC70 (concentration at which viability is reduced to 70% of the untreated control; usable dose): 0.12%
[2]; after 24 h, versus standard medium and FBS control
  regrowth of cells into cell-free area of scratch: promoted dose-dependent reversal of “healing”
[3]; after 24 h
  methylfolate concentration in basal compartment (comparison): approximately half
